Experiments:
Test in all cases: cells
Parameters in all cases: species or system JFCR39 human cancer cell lines; JFCR39 panel growth inhibition, sulforhodamine B total protein after 48 h
HCT-116 = conditions: for GI50: Homo sapiens, HCT-116, 48 h
How it was run: (§1)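 Steps: culture JFCR39 cells in RPMI-1640/5% FBS at 37°C, 5% CO2; add compound for 48 h; stain total protein with sulforhodamine B; derive GI50 from duplicate wells. Panel fingerprints were compared against a reference database by COMPARE.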

DMS273 = conditions: for GI50: Homo sapiens, DMS-273, 48 h; for Log GI50: 48 h, inhibitor, Log GI50, 48 h
How it was run: as §1

HCT-15 = conditions: for GI50: Homo sapiens, HCT-15, 48 h; for Log GI50: 48 h, inhibitor, Log GI50, 48 h
How it was run: as §1

SF-539 = conditions: for GI50: Homo sapiens, SF-539, 48 h
How it was run: as §1

RXF-631L = conditions: 48 h; for GI50: RXF-631L
How it was run: as §1

A549 = conditions: for GI50: Homo sapiens, A549, 48 h
How it was run: as §1

SF-268 = conditions: for GI50: Homo sapiens, SF-268, 48 h
How it was run: as §1

MKN-A = conditions: 48 h; for Log GI50: inhibitor, Log GI50, 48 h
How it was run: as §1

HBC-5 = conditions: for GI50: HBC5, 48 h
How it was run: as §1

MKN45 = conditions: for GI50: Homo sapiens, MKN-45, 48 h
How it was run: as §1

SNB-78 = conditions: for GI50: Homo sapiens, SNB-78, 48 h
How it was run: as §1

[1] = 48 h, inhibitor, Log GI50, 48 h

Row | SMILES | GI50 (HCT-116) [µM] | GI50 (DMS273) [µM] | GI50 (HCT-15) [µM] | GI50 (SF-539) [µM] | GI50 (RXF-631L) [µM] | GI50 (A549) [µM] | GI50 (SF-268) [µM] | GI50 (MKN-A) [µM] | GI50 (HBC-5) [µM] | GI50 (MKN45) [µM] | GI50 (SNB-78) [µM] | other results
1 | C=C1CCC2C(C)(CC(=O)C=C(C)C)C(O)CCC2(C)C1Cc1c(O)c(C)c(C)oc1=O (stereo not shown) [Compound 7] | 37.3 | 14.1 | 55.6 | 61.4 | 65.9 | 66.7 | 77.8 | 20.5 | 32.5 |  |  | 
2 | C=C1CCC2C(C)(CCC=C(C)C)C(O)CCC2(C)C1Cc1c(OC)oc(C)c(C)c1=O (stereo not shown) [Compound 11] | 0.736 | 0.199 | 1.22 |  | 19.3 |  | 14 | 0.308 | 13.9 | 18.6 | 21.9 | 
3 | C=C1CCC2C(C)(CCC=C(C)C)C(O)CCC2(C)C1Cc1c(OC)oc(CO)c(C)c1=O (stereo not shown) [Compound 12] | 2.63 |  |  | 11.5 | 16.1 | 6.24 | 12.3 |  | 8.73 | 13.4 | 13.3 | Log GI50 (DMS273): -7.063 M; Log GI50 (HCT-15): -5.533 M; Log GI50 (MKN-A): -6.771 M
4 | C=C1CCC2C(C)(CCC=C(C)C)C(O)CCC2(C)C1Cc1c(OC)oc(CO)c(C(=O)OC)c1=O (stereo not shown) [Compound 13] | 18.4 | 16.3 | 18.5 | 19.4 | 16.8 | 19.8 | 20.2 |  | 15.1 | 16.7 | 17.3 | 
5 | C=C1CCC2C(C)(CCC=C(C)C)C(O)CCC2(C)C1Cc1c(OC)oc(C)c(C(=O)OC)c1=O (stereo not shown) [Compound 14] | 2.83 | 0.289 | 10.2 | 12.4 | 14.5 | 11 | 12.8 |  | 12.1 | 13 | 14.7 | 
6 | C=C1CCC2C(C)(CCC=C(C)C)C(O)CCC2(C)C1Cc1c(OC)oc(CO)c(C)c1=O (stereo not shown) [Compound 16] |  |  |  |  |  |  |  |  |  |  |  | Log GI50 (HCT-116; [1]): -5.292 M; Log GI50 (DMS273): -5.822 M; Log GI50 (HCT-15): -5.220 M; Log GI50 (MKN45; [1]): -4.853 M; Log GI50 (SF-539; [1]): -4.953 M; Log GI50 (SNB-78; [1]): -4.939 M; Log GI50 (RXF-631L; inhibitor, Log GI50, 48 h): -4.839 M; Log GI50 (A549; [1]): -5.056 M; Log GI50 (SF-268; [1]): -4.944 M; Log GI50 (MKN-A): -5.445 M; Log GI50 (HBC-5; [1]): -4.986 M
7 | C=C1CC[C@H]2[C@]3(C)C[C@@H](C=C(C)C)O[C@H]3CC[C@]2(C)[C@@H]1Cc1c(OC)oc(CO)c(C)c1=O [Compound 17] | 0.953 | 0.713 | 0.942 | 12.2 | 14.4 | 12.3 | 13.2 | 0.408 | 11.8 | 14 | 14.2 | 
8 | C=C1CCC2C(C)(CC(=O)C=C(C)C)C(O)CCC2(C)C1Cc1c(OC)oc(CO)c(C)c1=O (stereo not shown) [Compound 19] | 22.8 | 9.98 | 52.8 | 65.8 |  | 34.4 | 69.5 | 9.57 | 31.6 | 77.1 | 36.2 | 
9 | C=C1CC[C@@H]2[C@](C)(CC[C@H]3O[C@H](C=C(C)C)C[C@@]23C)[C@@H]1Cc1c(OC)oc(CO)c(C)c1=O [Compound 20] | 10.4 | 0.0893 | 10.1 | 12.3 | 17 | 11.4 | 12.7 | 0.0986 | 12.4 | 14.5 | 14 | 
10 | C=C1CC[C@@H]2[C@](C)(CC[C@H]3O[C@H](C=C(C)C)C[C@@]23C)[C@@H]1Cc1c(OC)oc(CO)c(C(=O)OC)c1=O [Compound 21] | 15 | 16.6 | 17.6 | 18.4 | 17.3 | 18.5 | 19.5 | 14.3 | 14.7 | 16.2 | 18.7 | 
11 | C=C1CC[C@@H]2[C@](C)(CC[C@H]3O[C@H](C=C(C)C)C[C@@]23C)[C@@H]1Cc1c(OC)oc(C)c(C)c1=O [Compound 22, O-methylated higginsianin A] | 1.78 | 0.224 |  | 10.5 | 8.05 |  | 8.18 | 0.211 | 7.06 | 10.4 | 9.75 | 

— PMC7156458, “Synthetic biology based construction of biological activity-related library of fungal decalin-containing diterpenoid pyrones” (Nature Communications, 2020)
